Reference: patent US8658686B2, “Pyrazole compounds having therapeutic effect on multiple myeloma” (Nissan Chemical Industries, Ltd., priority 2010, dated 2014)
Values after ≈ are worked out from the molar mass of the structure shown. Read-outs that look alike come from different tables or passages of the source.

Columns and labels:
RPMI8226 cells = test: Cell proliferation assay (WST assay, Cell Counting Kit-8), myeloma cell strain RPMI8226; format: cell-based; conditions: 4 days of incubation, concentration yielding 50% inhibition of cell proliferation
Procedure: The CO2 concentration (%) in a CO2 incubator is expressed by the ratio of CO2 in the atmosphere in vol %.
Myeloma cell strain RPMI8226 (DS Pharma Biomedical Co., Ltd.) was incubated in liquid culture in a CO2 incubator (5% CO2) in RPMI1640 medium containing 10% (v/v) fetal calf serum. The resulting cells were suspended in RPMI640 medium(GIBCO) containing 10% (v/v) fetal calf serum and plated in 96-well flat-bottomed microplates (Corning Incorporated) in 100 μl/mL ([…]) per well. Furtheremore, each of the compounds prepared in Synthetic Examples was dissolved in dimethylsulfoxide and added at 0.1% (v/v) to final concentrations of 0.1 to 10 μg/mL. As the negative control, dimethyl sulfoxide was added at 0.1% (v/v).
After 4 days of incubation at 37° C. in liquid culture in a CO2 incubator (5% CO2), the viable cells were counted by the WST assay. A 10-μl aliquot of Cell Counting Kit-8 reagent solution (Dojindo Molecular Technologies, Inc.) was added to each well and incubated in a CO2 incubator (5% CO2) for 4 hours for color reaction, and light absorbance was measured at 450 nm by using a microplate reader. As the cell growth inhibitory activities in the presence of the test compounds relative to that in the absence of them (negative control), the concentrations (IC50) yielding 50% inhibition of cell proliferation were calculated.

[1] = Homo sapiens, RPMI-8226, 96 h, read-out: IC50

Row | Compound | IC50 (RPMI8226 cells) [µg/mL] | IC50 (RPMI8226 cells; [1]) [µg/mL] | melting point [°C]
1 | CCCCCCc1ccc(-c2c(C(C)C)nn(C(C)(C)Cc3ccc(C)cc3)c2O)cc1 [Compound No. 3-07, 4-(4-hexylphenyl)-3-isopropyl-1-(2-methyl-1-p-tolylpropan-2-yl)-1H-pyrazol-5-ol] | 5.3 (≈ 12.3 µM) | 8.8 (≈ 20.3 µM) | 
2 | CC(C)C1=NN(C(C)(C)Cc2ccc(Br)cc2)C(=O)C1 [Compound No. 3-12, 1-(1-(4-bromophenyl)-2-methylpropan-2-yl)-3-isopropyl-1H-pyrazol-5(4H)-one] |  | 5.4 (≈ 16 µM) | 
3 | CC(C)C1=NN(C(C)(C)Cc2ccccc2)C(=O)C1Br (stereo not shown) [Compound No. 3-47, 4-bromo-3-isopropyl-1-(2-methyl-1-phenylpropan-2-yl)-1H-pyrazol-5(4H)-one] |  | 3.3 (≈ 9.78 µM) | 
4 | COc1cc(-c2ccccc2)nn1C(C)(C)c1ccccc1 [Compound No. 3-13, 5-methoxy-3-phenyl-1-(2-phenylpropan-2-yl)-1H-pyrazole] |  | 5.4 (≈ 18.5 µM) | 
5 | COc1c(C)c(-c2ccccc2)nn1C(C)(C)c1ccccc1 [Compound No. 3-14, 5-methoxy-4-methyl-3-phenyl-1-(2-phenylpropan-2-yl)-1H-pyrazole] |  | 7.9 (≈ 25.8 µM) | 
6 | CC(C)(Cc1ccccc1)N1N=C(c2ccccc2)CC1=O [Compound No. 3-16, 1-(2-methyl-1-phenylpropan-2-yl)-3-phenyl-1H-pyrazol-5(4H)-one] |  | 3.5 (≈ 12 µM) | 
7 | COC(=O)CC1=NN(C(C)(C)c2ccccc2)C(=O)C1 [Compound No. 4-01, methyl 2-(5-oxo-1-(2-phenylpropan-2-yl)-4,5-dihydro-1H-pyrazol-3-yl)acetate] |  | 11.1 (≈ 40.5 µM) | 

Results, then the molecule that gave them:

Row | IC50 (RPMI8226 cells) [µg/mL] | IC50 (RPMI8226 cells; [1]) [µg/mL] | melting point [°C] | Compound
8 |  | 6.3 (≈ 16.1 µM) |  | COC(=O)c1ccc(-c2c(C(C)C)nn(C(C)(C)Cc3ccccc3)c2O)cc1 [Compound No. 4-23, methyl 4-(5-hydroxy-3-isopropyl-1-(2-methyl-1-phenylpropan-2-yl)-1H-pyrazol-4-yl)benzoate]
9 |  | 3.3 (≈ 7.94 µM) | 140 to 142 | CCCCCCc1ccc(-c2c(C#N)nn(C(C)(C)Cc3ccc(C)cc3)c2O)cc1 [Compound No. 4-86, 4-(4-Hexylphenyl)-5-hydroxy-1-(2-methyl-1-(p-tolyl)propan-2-yl)-1H-pyrazole-3-carbonitrile]
10 |  | 5.5 (≈ 17.4 µM) |  | CCOC(=O)c1c(C(C)C)nn(C(C)(C)c2ccccc2)c1O [Compound No. 4-27, ethyl 5-hydroxy-3-isopropyl-1-(2-phenylpropan-2-yl)-1H-pyrazole-4-carboxylate]
11 |  | 3.2 (≈ 8.83 µM) |  | CC(C)c1nn(C(C)(C)Cc2ccccc2)c(O)c1C(=O)c1ccccc1 [Compound No. 4-71, (5-hydroxy-3-isopropyl-1-(2-methyl-1-phenylpropan-2-yl)-1H-pyrazol-4-yl)(phenyl)methanone]
12 |  | 5.5 (≈ 14.1 µM) | 149 to 151 | CCCCCCc1ccc(-c2cnn(C(C)(C)Cc3ccc(C)cc3)c2O)cc1 [Compound No. 4-90, 4-(4-Hexylphenyl)-1-(2-methyl-1-(p-tolyl)propan-2-yl)-1H-pyrazol-5-ol]
13 |  | 4.7 (≈ 14.3 µM) |  | CON=C(C)c1c(C(C)C)nn(C(C)(C)Cc2ccccc2)c1O [Compound No. 4-89, 1-(5-Hydroxy-3-isopropyl-1-(2-methyl-1-phenylpropan-2-yl)-1H-pyrazol-4-yl)ethanone O-methyl oxime]
